According to patent US20260374769A1, “Crystalline Forms Of An Imidazopyridine Derivative” (Arisan Therapeutics Inc., priority 2023, published 2026):
≈ marks a conversion by molar mass, not a printed value.

How the values were obtained:
human CB1R = target: T1, human CB1R (Homo sapiens, UniProt P21554); experiment: CB1R Human Cannabinoid GPCR Cell Based Antagonist cAMP Assay (HTRF, CHO-K1 cells, CP55940 EC80); conditions: antagonist mode, CP55940 EC80, 20 uM forskolin, read-out: IC50 functional activity of CB1R
T1 construct: expressed in transfected cells; host or cells: CHO-K1
T1 sequence (P21554 whole entry): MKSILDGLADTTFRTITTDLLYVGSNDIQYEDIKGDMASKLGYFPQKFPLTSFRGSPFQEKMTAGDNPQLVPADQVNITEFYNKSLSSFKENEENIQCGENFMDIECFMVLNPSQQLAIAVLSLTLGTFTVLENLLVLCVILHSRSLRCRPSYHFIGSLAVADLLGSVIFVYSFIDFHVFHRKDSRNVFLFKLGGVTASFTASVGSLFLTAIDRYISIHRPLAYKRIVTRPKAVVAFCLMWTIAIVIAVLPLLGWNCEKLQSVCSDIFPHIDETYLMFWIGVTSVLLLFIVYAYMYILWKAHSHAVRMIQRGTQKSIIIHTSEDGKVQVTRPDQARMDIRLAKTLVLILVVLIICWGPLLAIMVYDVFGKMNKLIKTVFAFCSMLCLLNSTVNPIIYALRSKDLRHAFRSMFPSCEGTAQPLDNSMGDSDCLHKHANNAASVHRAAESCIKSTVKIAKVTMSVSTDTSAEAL
Method: CB1R Human Cannabinoid GPCR Cell Based Antagonist cAMP Assay
Evaluation of the potency (IC50) of Compound 1 for the human CB1R in stably transfected CHO-K1 cells was determined in a cAMP cell based assay using HTRF detection method. Cells were seeded in a total volume of 20 μL into white walled, 384-well microplates and incubated at 37 °C overnight prior to testing. Prior to testing cell plating media was exchanged with 10 μL of Assay buffer (HBSS+10 mM HEPES). Briefly, intermediate dilution of sample stocks was performed in assay buffer to generate a sample at 4× the final testing concentration. 5 μL of 4× sample was added to cells and incubated at 37 °C for 30 minutes. 5 μL of CP55940 at 4× the final EC80 concentration in 4× forskolin reagent (at 80 uM) was added and cells incubated for 37 °C for 30 minutes. The final concentration of forskolin in the assay was 20 uM. Final assay vehicle concentration was 1%. The results are expressed as a percent inhibition of CP55940 in antagonist mode.

obese C57BL/6J DIO mice = experiment: Mouse DIO Obesity Study (four weeks, oral once a day); assay type: in vivo; conditions: 4 weeks
Method: To determine if Compound 1 might have anti-obesity activity through CB1R antagonism a four week in vivo study in obese C57BL/6J DIO mice was initiated to investigate weight gain, food intake and fasting blood glucose levels (see Table 62 for experimental design). A GMP lot of Compound 1 at different doses was evaluated and compared to DIO mice dosed with vehicle alone. The compound was formulated as a homogenous suspension with Vitamin-E-TPGS, PEG400, Glycerol, Methylcellulose, 10 mM Sodium Citrate buffer pH6 and water. Animals were orally gavaged once-a-day with either test article or vehicle for 4 weeks.

rats = experiment: 28-day GLP rat toxicity study; assay type: in vivo
Excerpt: The same suspension formulation used in the mouse obesity model was used for the rat GLP toxicity study.

[1] = Hygroscopicity and sorption by DVS; assay type: physicochemical
Method: The hygroscopicity and the sorption properties of polymorphic Form A of Compound 1 were assessed using DVS.

[2] = Slurry at 50 °C (solid form after two days); assay type: physicochemical
Method: Slurry experiments were conducted at 50 °C in various solvent systems. […] After the suspension was stirred magnetically for two days at 50 °C, the remaining solids were isolated for XRPD analysis (Table 15).

[3] = Water activity experiments (IPA/H2O); assay type: physicochemical
[4] = Excipient compatibility study (4 weeks at 50 °C/75% RH); assay type: physicochemical
Method: The mixtures were placed in open containers and stored at 50 °C and 75% Relative Humidity (RH) for 4 weeks.

[5] = Solubility in water and biorelevant media; assay type: physicochemical; conditions: room temperature
[6] = Solid vapor diffusion (solid form after seven days at RT); assay type: physicochemical
Method: Solid vapor diffusion experiments were conducted using various solvents. […] The 20-mL vial was then sealed with a cap and kept at RT for seven days allowing solvent vapor to interact with sample. The remaining solids were isolated for XRPD analysis (Table 16).

[7] = Approximate solubility at room temperature in various solvents; assay type: physicochemical
[8] = Slurry at room temperature (solid form after three days); assay type: physicochemical
Method: Slurry experiments were conducted at room temperature in various solvent systems. […] After the suspension was stirred magnetically for three days at room temperature, the remaining solids were isolated for XRPD analysis (Table 14).

CB1R = conditions: cited from earlier work

Cc1cc2ncc(-c3ccc(OC(C)(C)C)cc3)n2cc1-c1ccc(OC(C)C)cc1 [Compound 1, 3-(4-(tert-butoxy)phenyl)-6-(4-isopropoxyphenyl)-7-methylimidazo[1,2-a]pyridine]
IC50 (human CB1R): 3.8 µM | food intake vs vehicle (obese C57BL/6J DIO mice; 30 mg/kg/day): significantly lower | body weight vs vehicle (obese C57BL/6J DIO mice; 10 and 30 mg/kg/day): significant decreases in body weight | fasting blood glucose vs vehicle (obese C57BL/6J DIO mice; oral once-a-day, FIG. 16): no significant effect on fasting blood glucose | percent weight gain vs vehicle (obese C57BL/6J DIO mice; oral once-a-day, group 4 and 5, FIG. 15): significant dose-dependent drop in percent weight gain | food intake vs vehicle (obese C57BL/6J DIO mice; oral once-a-day, group 5, FIG. 15): significant reduced food intake | mean cholesterol vs vehicle (rats; 28-day GLP rat toxicity study, FIG. 17): significant dose-dependent decreases in mean cholesterol | cholesterol levels (rats; all doses tested including 10, 30 and 50 mg/kg/day, 28-day): significantly reduced | CNS effect (functional observational battery) (rats; rat 28-day GLP toxicity study): no evidence of CNS effect

Cc1cc2ncc(-c3ccc(OC(C)(C)C)cc3)n2cc1-c1ccc(OC(C)C)cc1 [Polymorphic Form A of Compound 1, 3-(4-(tert-butoxy)phenyl)-6-(4-isopropoxyphenyl)-7-methylimidazo[1,2-a]pyridine]
weight increase (DVS) ([1]; 80% RH): ~ 0.28% | weight increase (DVS) ([1]; 95% RH): less than 0.5% | hygroscopicity ([1]; DVS): slightly hygroscopic | Solid Form ([2]; ACN): Form A | Solid Form ([2]; ACN:H2O (1:1)): Form E | Solid Form ([2]; DMSO): Amorphous | Solid Form ([2]; DSMO:H2O (1:1)): Amorphous | Solid Form ([2]; EtOH:H2O (1:1)): Form E | Solid Form ([2]; H2O): Form A | Solid Form ([2]; H2O:Acetone (7:3)): Form B | Solid Form ([2]; H2O:EtOH (6:4)): Form B, Low Crystalline | Solid Form ([2]; H2O:MeOH (7:3)): Form A | Solid Form ([2]; H2O:THF (7:3)): Form A | Solid Form ([2]; H2O:n-Propanol (6:4)): Form B, Peak Missing at 2- | Solid Form ([2]; MTBE): Form A | Solid Form ([2]; n-Heptane): Form A | Solid Form ([2]; n-Heptane:1,4-dioxane (19:1)): Gel | Solid Form ([2]; n-Heptane:Acetone (19:1)): Form A | Solid Form ([2]; n-Heptane:IPA (19:1)): Form B | Solid Form ([2]; n-Heptane:Toluene (19:1)): Form A | Solid Form ([3]; H2O aw = 1): Form A | Solid Form ([3]; IPA/H2O aw = 0.2, 982/18): Form A | Solid Form ([3]; IPA/H2O aw = 0.4, 956/44): Form A + B | Solid Form ([3]; IPA/H2O aw = 0.6, 919/81): Form C | Solid Form ([3]; IPA/H2O aw = 0.8, 847/153): Form C | excipient compatibility [4]: compatible with all excipients and blends in Table 22 | Appearance ([4]; open containers): White granular powder. | degraded at 672 h ([4]; open containers, read-out: Total Related Substances): 0.3% | solubility at 24 h ([5]; FaSSIF, pH 6.73): 0.041 mg/mL (≈ 0.0989 mM) | solubility at 24 h ([5]; FeSSIF, pH 5.07): 0.224 mg/mL (≈ 0.54 mM) | solubility at 24 h ([5]; Simulated Gastric Fluid (SGF), pH 2.38): 0.532 mg/mL (≈ 1.28 mM) | solubility at 24 h ([5]; Water, pH 6.63): < 0.0125 mg/mL | Solid Form ([6]; 2-MeTHF vapor): Gel | Solid Form ([6]; Acetone vapor): Form A | Solid Form ([6]; CPME vapor): Form D | Solid Form ([6]; EtOH vapor): Form F | Solid Form ([6]; IPA vapor): Form A | Solid Form ([6]; MEK vapor): Gel | Solid Form ([6]; MTBE vapor): Form A | Solid Form ([6]; Toluene vapor): Form A | Solid Form ([6]; n-Propanol vapor): Form A, Low Crystalline | solubility ([7]; organic solvent or mixture, 1-4-dioxane): > 60 mg/mL | solubility ([7]; organic solvent or mixture, 1-Butanol): > 60 mg/mL | solubility ([7]; organic solvent or mixture, 2-MeTHF): > 56 mg/mL | solubility ([7]; organic solvent or mixture, 2 butanol): > 54 mg/mL | solubility ([7]; organic solvent or mixture, Acetone): > 56 mg/mL | solubility ([7]; organic solvent or mixture, Acetonitrile): 28 to 56 mg/mL (≈ 67.5 to 135 mM) | solubility ([7]; organic solvent or mixture, CPME): > 46 mg/mL | solubility ([7]; organic solvent or mixture, DCM): > 48 mg/mL | solubility ([7]; organic solvent or mixture, DMF): > 60 mg/mL | solubility ([7]; organic solvent or mixture, DMSO): 8 to 24 mg/mL (≈ 19.3 to 57.9 mM) | solubility ([7]; organic solvent or mixture, EtOH): > 48 mg/mL | solubility ([7]; organic solvent or mixture, IPAC): > 48 mg/mL | solubility ([7]; organic solvent or mixture, Isopropanol): > 52 mg/mL | solubility ([7]; organic solvent or mixture, MEK): > 52 mg/mL | solubility ([7]; organic solvent or mixture, MIBK): > 50 mg/mL | solubility ([7]; organic solvent or mixture, MTBE): 28 to 56 mg/mL (≈ 67.5 to 135 mM) | solubility ([7]; organic solvent or mixture, MeOH): > 48 mg/mL | solubility ([7]; organic solvent or mixture, THF): > 50 mg/mL | solubility ([7]; organic solvent or mixture, Toluene): > 46 mg/mL | solubility ([7]; organic solvent or mixture, n-Heptane): 2.8 to 9.3 mg/mL (≈ 6.75 to 22.4 mM) | solubility ([7]; organic solvent or mixture, n-Propanol): > 52 mg/mL | solubility ([7]; water, H2O): < 2.4 mg/mL | Solid Form ([8]; RT, 1,4 Dioxane:H2O (3:7)): Form A | Solid Form ([8]; RT, ACN): Form A | Solid Form ([8]; RT, ACN:H2O (4:6)): Form A | Solid Form ([8]; RT, DCM:n-Heptane (2:8)): Form A | Solid Form ([8]; RT, DMF:H2O (3:7)): Form B | Solid Form ([8]; RT, DMSO): Form A | Solid Form ([8]; RT, DMSO:H2O (4:6)): Form B | Solid Form ([8]; RT, EtOH:n-Heptane (2:8)): Form C | Solid Form ([8]; RT, H2O): Form A | Solid Form ([8]; RT, MEK:n-Heptane (2:8)): Form A | Solid Form ([8]; RT, MTBE): Form A | Solid Form ([8]; RT, MTBE:n-Heptane (3:7)): Form D | Solid Form ([8]; RT, THF:n-Heptane (2:8)): Form A | Solid Form ([8]; RT, n-Heptane): Form A

Cc1c(C(=O)NN2CCCCC2)nn(-c2ccc(Cl)cc2Cl)c1-c1ccc(Cl)cc1 [Rimonabant]
cardiometabolic parameters (waist circumference, hemoglobin A1c, HDL, plasma cholesterol, triglycerides) (CB1R; clinical trials, obese people): improved multiple cardiometabolic parameters | weight loss (CB1R; clinical trials, obese people): weight loss in obese people | neuropsychiatric side-effects (CB1R; clinical use): withdrawn from clinical use due to its neuropsychiatric side-effects
